Source: US11401516B2, “Channel modulators” (AUCKLAND UNISERVICES LIMITED, priority 2014, dated 2022)

What was measured:
Connexin 43 RNA = assay: Connexin 43 knockdown by qPCR in HUVEC; type: cell-based, human; details: for Avg % KD qPCR: HUVEC, phosphorothioate backbone ASN; for Absolute Difference from SEQ1 (relative knockdown): all-thiophosphoriate linkages in the entire backbone; for dose response of Cxn43 knockdown, qPCR: 200-600 nM
Protocol: Next, the knockdown efficiency of Connexin 43 in HUVEC cells was measured by qPCR for an oligonucleotide series with the same sequence but with a different number of PTO-modifications on the oligonucleotide backbone. The sequences tested were SEQ1 and SEQ4, with none, 2, or all phosphorthioate linkages in the backbone. For the sequences with two phosphorthioate linkages in the backbone, the phosphorthioate linkages were between the last nucleotide linkages at the terminus of each side of the sequence. The sequences are Gs[…]sT (SEQ ID NO: 23) and As[…]sC (SEQ ID NO: 5) for SEQ1-2PTO and SEQ4-2PTO, respectively. […]
(§1) Cells were grown in 6-well culture plates for 24 hr and reached 50-70% confluence prior to antisense oligonucleotide treatments using the transfection agent Oligofectamine®. Cells were harvested for qPCR and Western blotting analysis between 4 and 24 hr after transfection.
qPCR was performed to determine the efficacy of antisense oligonucleotide in knockdown of the target RNA. Briefly, total RNA was extracted from the cells after transfection. The isolated RNA was DNAse-treated and reverse-transcribed into cDNA. The cDNA subsequently underwent qPCR thermal cycling. The Ct values (the number of cycles required for the fluorescent intensity to cross the set threshold) obtained from the qPCR were converted into relative abundance of RNA. The RNA level of the target was normalised to selected reference genes and compared between antisense oligonucleotide versus vehicle treatments.
(§2) The cell screening experiments were performed using HUVEC cells (human umbilical vein endothelial cells; Invitrogen), with two biological replicates in each experiment. The identifiers of “CODA” are SEQ1, and “LP2” are SEQ4.

Connexin 43 = Connexin 43 knockdown by Western blot in HUVEC; type: cell-based, human; details: phosphorothioate backbone ASN
Protocol: as §1
Western blotting was also performed to determine the efficacy of antisense oligonucleotide in knockdown of the target protein. Briefly, total proteins were extracted from the cells after transfection and the concentration was determined by performing bicinchoninic acid (BCA) assay. Subsequently, equal amounts of total protein were loaded for gel electrophoresis and blotted onto nitrocellulose membranes, which were then probed with a specific antibody against the target protein. Densitometry was used to quantify the band intensity of the target protein. Knockdown was quantified by comparing antisense oligonucleotide versus vehicle treatments.
as §2

HUVEC cells = assay: Transfection uptake of FAM-labelled oligonucleotides (FACS); type: cell-based, Human; details: 200 nM
Protocol: HUVEC cells (C-003-5C, Invitrogen, primary Human endothelial cells) were used to test the transfection of chemically modified backbones of the Connexin 43 antisense compounds. Cells were transfected with Oligofectamine® using the manufacturer's recommended protocol for 4 hr and 12 hr in serum-free media. The antisense concentration was 200 nM in buffer. The antisense compounds used had unmodified (O) or fully modified (PTO) backbones, where the modified backbone had all thiophosphoriate linkages between the nucleotides. The unmodified sequence SEQ1-O would have the sequence […] NO: 23). The modified sequence SEQ1-PTO would have the sequence of: [NT] NO: 23), wherein the subscript “s” indicates the thiophosphoriate linkage between the two nucleotides. […] All sequences for the transfection study were labelled with FAM for fluorescence labelling. The transfected cells were analyzed by FACS (fluorescent-activated cell sorting), and confocal microscopy.

[1] = cited from earlier work; for incidence of new geographic atrophy: treated monthly, average 23 injections over two years
Connexin43 hemichannel = biological target: T1, Connexin43 hemichannel (Homo sapiens, UniProt P17302); assay: Whole-cell voltage clamp, Connexin43 transfected HeLa cells; type: cell-based; details: voltage steps; peptide5 100 μM; carbenoxolone and LaCl3 concentration not stated
T1 construct: expressed in transfected cells; host or cells: HeLa (connexin-deficient parent), Cx43IRESeGFP, puromycin selection
Protocol: Whole-cell voltage clamp studies were conducted on connexin deficient HeLa cells, Connexin43 transfected HeLa cells and isolated human cerebral microvascular endothelial cells (hCMVEC).
HeLa cells were seeded at 0.045×10^6 cells/mL on 18 mm rat collagen I coated coverslips 16-24 hours before each experiment. Cx43IRESeGFP HeLa cells were cultured overnight in DMEM supplemented with 10% FCS and 1 μg/mL Puromycin at 37° C. at 95% O2 and 5% CO2. Control Cx-deficient cells were maintained in DMEM supplmented with 10% FCS. Coverslips were transferred to a chamber continuously perfused with modified Krebs-Ringer solution containing (in mM): 140 NaCl, 5.4 KCl, 1 MgCl2, 10 mM Hepes and pH adjusted to 7.4 at room temperature. The internal pipette solution contained (in mM): 130 KCl, 10 sodium aspartate, 0.26 CaCl2, 2 EGTA, 5 tetraethylammonium-Cl, 1 MgCl, 3 MgATP, and 5 Hepes at pH 7.2; and was kept on ice. The solutions are described in Contreras J E, et al., Cell Communication and Adhesion (2003), 10:245-249. To resolve single currents in whole-cell configuration, cells with low capacitance (<10 pF) and high resistance pipettes ([…]) with a seal resistance of (>5 GOhm) were selected for recording and analysis.

[2] = Table 66, 4 hr post-transfection
[3] = Table 67, 4 hr post-transfection
[4] = unmodified sequences (no phosphorthioate linkages)

T1 sequence (P17302 2-382 limits assumed): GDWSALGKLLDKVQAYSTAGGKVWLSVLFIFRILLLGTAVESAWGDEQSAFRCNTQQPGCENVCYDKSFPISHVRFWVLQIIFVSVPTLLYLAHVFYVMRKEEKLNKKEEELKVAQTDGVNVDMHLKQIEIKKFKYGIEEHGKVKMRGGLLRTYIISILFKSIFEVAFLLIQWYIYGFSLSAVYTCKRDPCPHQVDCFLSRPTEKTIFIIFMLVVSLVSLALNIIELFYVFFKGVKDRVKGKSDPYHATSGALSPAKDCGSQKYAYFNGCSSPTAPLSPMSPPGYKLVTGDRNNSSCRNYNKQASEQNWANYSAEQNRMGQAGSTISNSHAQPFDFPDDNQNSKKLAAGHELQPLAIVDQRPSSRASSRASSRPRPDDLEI

Question: Which “Avg % KD qPCR” value (Connexin 43 RNA) does the source give for “AGGCTGTGCATGGGAGTTAG (chemistry not given here) [SEQ7/1233]” here?
Answer: 82%

Question: And the “Absolute Difference from SEQ1 (relative knockdown)” value (Connexin 43 RNA)?
Answer: 17

Question: What about the “Avg % KD WB” value (Connexin 43) of the same molecule?
Answer: 75%

Question: For “GCTGGCTCTGCTTGAAGGTC (chemistry not given here) [SEQ 5/133705]”, which “Avg % KD qPCR” value (Connexin 43 RNA) is on record?
Answer: 84%

Question: What about the “Absolute Difference from SEQ1 (relative knockdown)” value (Connexin 43 RNA) of the same molecule?
Answer: 19

Question: What about the “Avg % KD WB” value (Connexin 43) of the same molecule?
Answer: 75%

Question: Which “% transfected, M2” value (HUVEC cells; [2]) does the source give for “ACCCATGTTGCCTGGGCACC (chemistry not fully specified) [SEQ4-Q]” here?
Answer: 64%

Question: What about the “% transfected, M3” value (HUVEC cells; [2]) of the same molecule?
Answer: 34%

Question: What about the “% transfected, M4” value (HUVEC cells; [2]) of the same molecule?
Answer: 1%

Question: And the “% transfected, Total” value (HUVEC cells; [2])?
Answer: 99%

Question: What about the “% transfected, M2” value (HUVEC cells; [3]) of the same molecule?
Answer: 55%

Question: And the “% transfected, M3” value (HUVEC cells; [3])?
Answer: 41%

Question: What about the “% transfected, M4” value (HUVEC cells; [3]) of the same molecule?
Answer: 2%

Question: What about the “% transfected, Total” value (HUVEC cells; [3]) of the same molecule?
Answer: 99%

Question: What does the source list for “ATATGATCTGCAGGACCCAG (chemistry not given here) [SEQ9/50506]”?
Answer: Avg % KD qPCR (Connexin 43 RNA): 79%; Absolute Difference from SEQ1 (relative knockdown) (Connexin 43 RNA): 14; Avg % KD WB (Connexin 43): 73%

Question: What does the source list for “CGCTGGTCCACAATGGCTAG (chemistry not given here) [SEQ6/133705]”?
Answer: Avg % KD qPCR (Connexin 43 RNA): 83%; Absolute Difference from SEQ1 (relative knockdown) (Connexin 43 RNA): 18; dose response of Cxn43 knockdown, qPCR (Connexin 43 RNA; [4]): exhibited a dose response; Avg % KD WB (Connexin 43): 75%

Question: With “GsTsAsAsTsTsGsCsGsGsCsAsAsGsAsAsGsAsAsTsTsGsTsTsTsCsTsGsT (GTAATTGCGGCAAGAAGAATTGTTTCTGT; chemistry not fully specified) [SEQ1-PTO]” as the molecule, how does the “% transfected, M2” value (HUVEC cells; [2]) read?
Answer: 26%

Question: And the “% transfected, M3” value (HUVEC cells; [2])?
Answer: 63%

Question: And the “% transfected, M4” value (HUVEC cells; [2])?
Answer: 11%

Question: What about the “% transfected, Total” value (HUVEC cells; [2]) of the same molecule?
Answer: 100%

Question: And the “% transfected, M2” value (HUVEC cells; [3])?
Answer: 15%

Question: What about the “% transfected, M3” value (HUVEC cells; [3]) of the same molecule?
Answer: 49%

Question: What about the “% transfected, M4” value (HUVEC cells; [3]) of the same molecule?
Answer: 35%

Question: And the “% transfected, Total” value (HUVEC cells; [3])?
Answer: 100%

Question: Which “Avg % KD qPCR” value (Connexin 43 RNA) does the source give for “TCTCCCCAGGCTGACTCAAC (chemistry not given here) [SEQ10/37503]” here?
Answer: 77%

Question: And the “Absolute Difference from SEQ1 (relative knockdown)” value (Connexin 43 RNA)?
Answer: 12

Question: What about the “Avg % KD WB” value (Connexin 43) of the same molecule?
Answer: 75%

Question: For “GTAATTGCGGCAAGAAGAATTGTTTCTGTC (chemistry not given here) [SEQ1]”, which “knockdown effect on Cxn43, qPCR” value (Connexin 43 RNA; unmodified sequences (no phosphorthioate linkages), 4 hr, all concentrations (200-600 nM)) is on record?
Answer: ≤ 10%

Question: With “CCAGGCTGACTCAACCGCTG (chemistry not given here) [SEQ4/37501]” as the molecule, how does the “Avg % KD qPCR” value (Connexin 43 RNA) read?
Answer: 87%

Question: And the “Absolute Difference from SEQ1 (relative knockdown)” value (Connexin 43 RNA)?
Answer: 22

Question: What about the “dose response of Cxn43 knockdown, qPCR” value (Connexin 43 RNA; [4]) of the same molecule?
Answer: exhibited a dose response

Question: What about the “Avg % KD WB” value (Connexin 43) of the same molecule?
Answer: 82%

Question: Which “incidence of new geographic atrophy” value [1] does the source give for Avastin: VEGF antagonist antibody here?
Answer: 19.5%

Question: For Lucentis: VEGF antagonist antibody, which new geographic atrophy ([1]; treated as needed) is on record?
Answer: 16%

Question: What about the “incidence of new geographic atrophy” value [1] of the same molecule?
Answer: 29.4%

Question: Which “% transfected, M2” value (HUVEC cells; [2]) does the source give for “GTAATTGCGGCAAGAAGAATTGTTTCTGT (DNA, phosphodiester; FAM fluorescent label attached, position not given here) [SEQ1-O]” here?
Answer: 56%

Question: And the “% transfected, M3” value (HUVEC cells; [2])?
Answer: 42%

Question: And the “% transfected, M4” value (HUVEC cells; [2])?
Answer: 2%

Question: And the “% transfected, Total” value (HUVEC cells; [2])?
Answer: 99%

Question: And the “% transfected, M2” value (HUVEC cells; [3])?
Answer: 56%

Question: What about the “% transfected, M3” value (HUVEC cells; [3]) of the same molecule?
Answer: 40%

Question: And the “% transfected, M4” value (HUVEC cells; [3])?
Answer: 2%

Question: And the “% transfected, Total” value (HUVEC cells; [3])?
Answer: 98%

Question: Which results are given for “AsCsCsCsAsTsGsTsTsGsCsCsTsGsGsGsCsAsCsC (ACCCATGTTGCCTGGGCACC; chemistry not fully specified) [SEQ4-PTO]”?
Answer: % transfected, M2 (HUVEC cells; [2]): 9%; % transfected, M3 (HUVEC cells; [2]): 44%; % transfected, M4 (HUVEC cells; [2]): 48%; % transfected, Total (HUVEC cells; [2]): 100%; % transfected, M2 (HUVEC cells; [3]): 9%; % transfected, M3 (HUVEC cells; [3]): 44%; % transfected, M4 (HUVEC cells; [3]): 47%; % transfected, Total (HUVEC cells; [3]): 99%

Question: For “GAAGCGCACATGAGAGATTG (chemistry not given here) [SEQ11]”, which “Absolute Difference from SEQ1 (relative knockdown)” value (Connexin 43 RNA) is on record?
Answer: 20

Question: With `[Cl][La]([Cl])[Cl]` [LaCl3] as the molecule, how does the Connexin43 hemichannel activity (Connexin43 hemichannel) read?
Answer: virtually complete hemichannel block

Question: For “CAGAAGCGCACATGAGAGAT (chemistry not given here) [SEQ8/47001]”, which “Avg % KD qPCR” value (Connexin 43 RNA) is on record?
Answer: 81%

Question: What about the “Absolute Difference from SEQ1 (relative knockdown)” value (Connexin 43 RNA) of the same molecule?
Answer: 15

Question: What about the “Avg % KD WB” value (Connexin 43) of the same molecule?
Answer: 75%
